Common to all, as to experiment: relative viability (nuclei count vs DMSO), 5 days (fraction); higher = more cells survive
Compound in the experiment “Shikonin + Bortezomib”: CC(C)=CC[C@@H](O)C1=CC(=O)c2c(O)ccc(O)c2C1=O [Shikonin] + CC(C)C[C@H](NC(=O)[C@H](Cc1ccccc1)NC(=O)c1cnccn1)B(O)O [Bortezomib] (partner 0.002 µM)
The method, boiled down:
(§1)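 Cells from lung cancer lines were seeded into 1536-well plates and, one day later, dosed by pin tool. Treatments were either a single drug or a fixed dose of an anchor drug with five library-drug doses (not always all listed) in √10 steps. After 5 days, nuclei were stained in a one-step fixation (final 0.05% Triton X-100, 1% formaldehyde, 1 ug/ml Hoechst) and counted on 4× images, and relative viability is the treated-to-vehicle nuclei ratio, as the median of duplicate plates.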

Compound in the experiment “Shikonin + Crizotinib”: CC(C)=CC[C@@H](O)C1=CC(=O)c2c(O)ccc(O)c2C1=O [Shikonin] + C[C@@H](Oc1cc(-c2cnn(C3CCNCC3)c2)cnc1N)c1c(Cl)ccc(F)c1Cl [Crizotinib] (partner 1 µM)
The method, boiled down:
as §1

Compound in experiment [1]: CC(C)N(CCCNC(=O)Nc1ccc(C(C)(C)C)cc1)C[C@H]1O[C@@H](n2ccc3c(N)ncnc32)[C@H](O)[C@@H]1O + NC(=O)Nc1cc(-c2cccc(F)c2)sc1C(=O)N[C@H]1CCCNC1 [AZD7762] (partner 0.2 µM)
The method, boiled down: as §1

Compound in experiment [2]: CC(C)N(CCCNC(=O)Nc1ccc(C(C)(C)C)cc1)C[C@H]1O[C@@H](n2ccc3c(N)ncnc32)[C@H](O)[C@@H]1O + CC(C)C[C@H](NC(=O)[C@H](Cc1ccccc1)NC(=O)c1cnccn1)B(O)O [Bortezomib] (partner 0.002 µM)
The method, boiled down:
as §1

Turning to NCI-H596, the relative viability with Shikonin + Bortezomib (first compound 0.01 µM) is 1.06; with Shikonin + Bortezomib (first compound 0.1 µM) it was 1.01; with Shikonin + Bortezomib (first compound 0.3162 µM), 0.948; with Shikonin + Bortezomib (first compound 1 µM), 1.29; in the experiment with Shikonin + Crizotinib (first compound 0.01 µM), 1.1; with Shikonin + Crizotinib (first compound 0.1 µM), 0.884. The relative viability was 0.96 with Shikonin + Crizotinib (first compound 0.3162 µM); 0.985 in the experiment with Shikonin + Crizotinib (first compound 1 µM); 1.09 in experiment [1] (first compound 0.08 µM); 0.943 in experiment [1] (first compound 0.253 µM); 0.926 in experiment [1] (first compound 0.8 µM); 1.23 in experiment [1] (first compound 2.53 µM). In addition, the relative viability turned out to be 1.09 in experiment [1] (first compound 8 µM); 0.997 in experiment [2] (first compound 0.08 µM); 0.843 in experiment [2] (first compound 0.253 µM); 0.746 in experiment [2] (first compound 0.8 µM); 1.05 in experiment [2] (first compound 2.53 µM); 1.2 in experiment [2] (first compound 8 µM).

Regarding NCI-H1666, the relative viability with Shikonin + Bortezomib (first compound 0.01 µM) turned out to be 0.799; in the experiment with Shikonin + Bortezomib (first compound 0.1 µM), 0.879; with Shikonin + Bortezomib (first compound 0.3162 µM), 0.819; with Shikonin + Bortezomib (first compound 1 µM) it was 0.729; with Shikonin + Crizotinib (first compound 0.01 µM), 1.12; with Shikonin + Crizotinib (first compound 0.1 µM), 0.971. The relative viability in the experiment with Shikonin + Crizotinib (first compound 0.3162 µM) amounted to 1.12; with Shikonin + Crizotinib (first compound 1 µM), 0.744; in experiment [1] (first compound 0.08 µM), 0.924; in experiment [1] (first compound 0.253 µM), 0.898; in experiment [1] (first compound 0.8 µM) it was 0.758; in experiment [1] (first compound 2.53 µM), 0.844. Moreover, the relative viability came out at 0.773 in experiment [1] (first compound 8 µM); 0.802 in experiment [2] (first compound 0.08 µM); 0.775 in experiment [2] (first compound 0.253 µM); 0.613 in experiment [2] (first compound 0.8 µM); 0.83 in experiment [2] (first compound 2.53 µM); 0.697 in experiment [2] (first compound 8 µM).

As to NCI-H1651, the relative viability worked out at 0.986 with Shikonin + Bortezomib (first compound 0.01 µM); 1.06 with Shikonin + Bortezomib (first compound 0.1 µM); 0.948 in the experiment with Shikonin + Bortezomib (first compound 0.3162 µM); 0.928 with Shikonin + Bortezomib (first compound 1 µM); 0.857 with Shikonin + Crizotinib (first compound 0.01 µM); 0.831 with Shikonin + Crizotinib (first compound 0.1 µM). Also, the relative viability with Shikonin + Crizotinib (first compound 0.3162 µM) was 0.883; with Shikonin + Crizotinib (first compound 1 µM), 0.876; in experiment [1] (first compound 0.08 µM) it was 0.545; in experiment [1] (first compound 0.253 µM) it was 0.562; in experiment [1] (first compound 0.8 µM) it was 0.468; in experiment [1] (first compound 2.53 µM), 0.46. Further, the relative viability in experiment [1] (first compound 8 µM) is 0.457; in experiment [2] (first compound 0.08 µM), 0.958; in experiment [2] (first compound 0.253 µM) it was 0.957; in experiment [2] (first compound 0.8 µM) it was 0.967; in experiment [2] (first compound 2.53 µM) it was 0.943; in experiment [2] (first compound 8 µM), 0.944.

For the cell line NCI-H1755, the relative viability was found to be 0.978 with Shikonin + Bortezomib (first compound 0.01 µM); 1.1 with Shikonin + Bortezomib (first compound 0.1 µM); 1.11 with Shikonin + Bortezomib (first compound 0.3162 µM); 0.98 with Shikonin + Bortezomib (first compound 1 µM); 0.972 with Shikonin + Crizotinib (first compound 0.01 µM); 1.09 with Shikonin + Crizotinib (first compound 0.1 µM). Besides, the relative viability stood at 0.88 with Shikonin + Crizotinib (first compound 0.3162 µM); 0.887 with Shikonin + Crizotinib (first compound 1 µM); 0.473 in experiment [1] (first compound 0.08 µM); 0.401 in experiment [1] (first compound 0.253 µM); 0.44 in experiment [1] (first compound 0.8 µM); 0.444 in experiment [1] (first compound 2.53 µM). Further, the relative viability in experiment [1] (first compound 8 µM) was 0.426; in experiment [2] (first compound 0.08 µM), 0.934; in experiment [2] (first compound 0.253 µM) it was 0.914; in experiment [2] (first compound 0.8 µM), 0.467; in experiment [2] (first compound 2.53 µM) it was 0.929; in experiment [2] (first compound 8 µM), 0.878.

For NCI-H838, the relative viability in the experiment with Shikonin + Bortezomib (first compound 0.01 µM) was determined as 0.992; with Shikonin + Bortezomib (first compound 0.1 µM), 0.727; in the experiment with Shikonin + Bortezomib (first compound 0.3162 µM) it was 0.842; with Shikonin + Bortezomib (first compound 1 µM) it was 0.685; in the experiment with Shikonin + Crizotinib (first compound 0.01 µM), 0.898; with Shikonin + Crizotinib (first compound 0.1 µM) it was 0.967. In addition, the relative viability with Shikonin + Crizotinib (first compound 0.3162 µM) was 0.898; in the experiment with Shikonin + Crizotinib (first compound 1 µM) it was 0.99; in experiment [1] (first compound 0.08 µM) it was 0.864; in experiment [1] (first compound 0.253 µM) it was 0.909; in experiment [1] (first compound 0.8 µM) it was 0.912; in experiment [1] (first compound 2.53 µM), 0.806. Moreover, the relative viability in experiment [1] (first compound 8 µM) turned out to be 0.95; in experiment [2] (first compound 0.08 µM), 0.755; in experiment [2] (first compound 0.253 µM), 0.372; in experiment [2] (first compound 0.8 µM) it was 0.626; in experiment [2] (first compound 2.53 µM), 0.672; in experiment [2] (first compound 8 µM), 0.788.

Turning to HARA, the relative viability came to 1.16 in the experiment with Shikonin + Bortezomib (first compound 0.01 µM); 1.24 in the experiment with Shikonin + Bortezomib (first compound 0.1 µM); 1.16 with Shikonin + Bortezomib (first compound 0.3162 µM); 1.24 with Shikonin + Bortezomib (first compound 1 µM); 1.18 with Shikonin + Crizotinib (first compound 0.01 µM); 1.19 with Shikonin + Crizotinib (first compound 0.1 µM). The relative viability in the experiment with Shikonin + Crizotinib (first compound 0.3162 µM) worked out at 1.11; in the experiment with Shikonin + Crizotinib (first compound 1 µM), 1.21; in experiment [1] (first compound 0.08 µM), 0.344; in experiment [1] (first compound 0.253 µM) it was 0.244; in experiment [1] (first compound 0.8 µM), 0.334; in experiment [1] (first compound 2.53 µM), 0.655. The relative viability amounted to 0.299 in experiment [1] (first compound 8 µM); 1.13 in experiment [2] (first compound 0.08 µM); 1.15 in experiment [2] (first compound 0.253 µM); 0.604 in experiment [2] (first compound 0.8 µM); 1.03 in experiment [2] (first compound 2.53 µM); 1.02 in experiment [2] (first compound 8 µM).

With NCI-H650, the relative viability with Shikonin + Bortezomib (first compound 0.01 µM) amounted to 0.83; with Shikonin + Bortezomib (first compound 0.3162 µM), 0.77; with Shikonin + Bortezomib (first compound 1 µM), 0.98; in the experiment with Shikonin + Crizotinib (first compound 0.01 µM), 0.818; with Shikonin + Crizotinib (first compound 0.3162 µM), 0.643; in the experiment with Shikonin + Crizotinib (first compound 1 µM), 0.804. The relative viability in experiment [1] (first compound 0.08 µM) came out at 1.07; in experiment [1] (first compound 0.253 µM) it was 0.956; in experiment [1] (first compound 0.8 µM) it was 0.878; in experiment [1] (first compound 2.53 µM), 0.87; in experiment [1] (first compound 8 µM) it was 1.04; in experiment [2] (first compound 0.08 µM), 0.785. Also, the relative viability in experiment [2] (first compound 0.253 µM) was 0.598; in experiment [2] (first compound 0.8 µM), 0.773; in experiment [2] (first compound 2.53 µM), 0.682; in experiment [2] (first compound 8 µM), 0.796.

For the origin of these results see the supplement of paper PMC10307832.
